Where “and” joins values, the source holds several entries; their conditions need not be identical. Equal values may be shown once. Read-outs that look alike come from different tables or passages of the source.
Tests used:
[1] = normal mice, i.v., mean (SD), 5 animals, cited from earlier work
[2] = Ex vivo biodistribution in normal mice; set-up: species or system ddY mice; conditions: i.v., mean (SD), 5 animals
Experimental: To evaluate brain uptake of ^99mTc-Ham complexes, biodistribution experiments of ^99mTc-Ham complexes were performed in normal mice. We selected ^18F-florbetapir as a control and compared the results of ^99mTc-Ham complexes with that of ^18F-florbetapir (Fig. 2). The brain uptake of [^99mTc]SB1A, [^99mTc]SB2A, [^99mTc]BT1B, and [^99mTc]BT2B at 2 min postinjection was 0.37, 0.28, 0.36, and 0.37% injected dose (ID)/g, respectively. The radioactivity in the brains remained low until 60 min postinjection. The results of the biodistribution study are shown in Table S1 in Supplementary information.
A saline solution (100 μL) of ^99mTc-Ham complexes (20 kBq) containing EtOH (10 μL) was injected directly into the tail vein of ddY mice (male, 5 weeks old). The mice were sacrificed at 2, 10, 30, and 60 min postinjection. The organs of interest were removed and weighed, and radioactivity was measured using a γ counter (PerkinElmer). The %ID/g of samples was calculated by comparing the sample counts with the count of the diluted initial dose.
*Corresponding author: M. Ono. Address: 46-29 Yoshida Shimoadachi-cho, Sakyo-ku, Kyoto 606-8501, Japan, Phone: +81-75-753-4608, Fax: +81-75-753-4568, E-mail: ono@pharm.kyoto-u.ac.jp. Ex vivo biodistribution in normal mice. A saline solution (100 μL) of ^99mTc-Ham complexes (20 kBq) containing EtOH (10 μL) was injected directly into the tail vein of ddY mice (male, 5 weeks old). The mice were sacrificed at 2, 10, 30, and 60 min postinjection. The organs of interest were removed and weighed, and radioactivity was measured using a γ counter (Wallac 1470 Wizard; PerkinElmer, Massachusetts, USA). Percentage dose per organ was calculated by comparing the tissue counts to suitably diluted aliquots of the injected material. The %dose/g of samples was calculated by comparing the sample counts with the count of the diluted initial dose.

CAA in Tg2576 mice = target: T1, CAA in Tg2576 mice (Homo sapiens, UniProt P05067); assay: SPECT/CT imaging in Tg2576 and wild-type mice; type: in vivo; conditions: 30 min postinjection
T1 construct: Aβ(1–40) aggregates, the predominant amyloid found in CAA; tissue Taconic Farms, Inc. (New York, USA); host or cells: brain of living female Tg2576 transgenic mice
Experimental: SPECT/CT imaging. Tg2576 transgenic mice (female, 27 or 30 months old) and wild-type mice (female, 27 or 30 months old) were used as the Alzheimer’s model and age-matched control, respectively. A saline solution (200 μL) of [^99mTc]SB2A (29.6-55.5 MBq) containing EtOH (40 μL) was injected directly into the tail vein. At 30 or 120 min postinjection, SPECT and CT images with the brain region as the ﬁeld of view were collected using the U-SPECT-II/CT system (MILabs, Utrecht, Netherlands) with 0.6-mm pinhole collimators (SPECT conditions, 30 min × 2 frames; CT conditions, accurate full angle mode in 65 kV/615 µA). The mouse was maintained under isoflurane anesthesia, while SPECT and then CT image data were collected. SPECT images were reconstructed by the OSEM method (16 subsets, 6 iterations) with a 0.4-mm Gaussian ﬁlter.

T1 sequence (P05067 672-711 limits assumed): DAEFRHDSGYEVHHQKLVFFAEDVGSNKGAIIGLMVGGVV

CN(C)c1ccc(/C=C/c2ccc(C3=N[O][99Tc-]4(=[O])([NH]3)[NH2+]C(c3ccc(/C=C/c5ccc(N(C)C)cc5)cc3)=N[O]4)cc2)cc1 (single isomer, unassigned) [[^99mTc]SB2A]
Biodistribution of radioactivity, Blood ([1]; 2 min after injection): 14.28 (1.90) % injected dose per gram | Biodistribution of radioactivity, Brain ([1]; 2 min after injection): 0.28 % injected dose per gram and 0.28 (0.03) % injected dose per gram | Biodistribution of radioactivity, Blood ([1]; 10 min after injection): 7.50 (0.51) % injected dose per gram | Biodistribution of radioactivity, Brain ([1]; 10 min after injection): 0.17 (0.02) % injected dose per gram | Biodistribution of radioactivity, Blood ([1]; 30 min after injection): 5.13 % injected dose per gram and 5.13 (0.57) % injected dose per gram | Biodistribution of radioactivity, Brain ([1]; 30 min after injection): 0.12 (0.01) % injected dose per gram | Biodistribution of radioactivity, Blood ([1]; 60 min after injection): 4.17 (0.24) % injected dose per gram | Biodistribution of radioactivity, Brain ([1]; 60 min after injection): 0.11 (0.01) % injected dose per gram | Biodistribution of radioactivity, Heart ([2]; 2 min after injection): 12.64 (1.59) % injected dose per gram | Biodistribution of radioactivity, Intestine ([2]; 2 min after injection): 1.52 (0.25) % injected dose per gram | Biodistribution of radioactivity, Kidney ([2]; 2 min after injection): 5.03 (0.52) % injected dose per gram | Biodistribution of radioactivity, Liver ([2]; 2 min after injection): 25.52 (1.67) % injected dose per gram | Biodistribution of radioactivity, Lung ([2]; 2 min after injection): 14.35 (1.86) % injected dose per gram | Biodistribution of radioactivity, Pancreas ([2]; 2 min after injection): 3.35 (0.60) % injected dose per gram | Biodistribution of radioactivity, Spleen ([2]; 2 min after injection): 10.76 (0.96) % injected dose per gram | Biodistribution of radioactivity, Stomach ([2]; 2 min after injection): 3.15 (0.56) % injected dose per organ | Biodistribution of radioactivity, Heart ([2]; 10 min after injection): 6.57 (0.92) % injected dose per gram | Biodistribution of radioactivity, Intestine ([2]; 10 min after injection): 1.71 (0.11) % injected dose per gram | Biodistribution of radioactivity, Kidney ([2]; 10 min after injection): 3.57 (0.41) % injected dose per gram | Biodistribution of radioactivity, Liver ([2]; 10 min after injection): 29.35 (2.85) % injected dose per gram | Biodistribution of radioactivity, Lung ([2]; 10 min after injection): 7.79 (0.50) % injected dose per gram | Biodistribution of radioactivity, Pancreas ([2]; 10 min after injection): 2.12 (0.08) % injected dose per gram | Biodistribution of radioactivity, Spleen ([2]; 10 min after injection): 11.24 (2.26) % injected dose per gram | Biodistribution of radioactivity, Stomach ([2]; 10 min after injection): 8.78 (1.32) % injected dose per organ | Biodistribution of radioactivity, Heart ([2]; 30 min after injection): 8.58 (1.32) % injected dose per gram | Biodistribution of radioactivity, Intestine ([2]; 30 min after injection): 2.64 (0.36) % injected dose per gram | Biodistribution of radioactivity, Kidney ([2]; 30 min after injection): 3.61 (0.29) % injected dose per gram | Biodistribution of radioactivity, Liver ([2]; 30 min after injection): 27.04 (3.90) % injected dose per gram | Biodistribution of radioactivity, Lung ([2]; 30 min after injection): 7.26 (1.02) % injected dose per gram | Biodistribution of radioactivity, Pancreas ([2]; 30 min after injection): 2.06 (0.11) % injected dose per gram | Biodistribution of radioactivity, Spleen ([2]; 30 min after injection): 8.91 (3.26) % injected dose per gram | Biodistribution of radioactivity, Stomach ([2]; 30 min after injection): 16.13 (2.33) % injected dose per organ | Biodistribution of radioactivity, Heart ([2]; 60 min after injection): 8.27 (1.19) % injected dose per gram | Biodistribution of radioactivity, Intestine ([2]; 60 min after injection): 4.05 (0.55) % injected dose per gram | Biodistribution of radioactivity, Kidney ([2]; 60 min after injection): 3.39 (0.20) % injected dose per gram | Biodistribution of radioactivity, Liver ([2]; 60 min after injection): 24.95 (3.38) % injected dose per gram | Biodistribution of radioactivity, Lung ([2]; 60 min after injection): 6.48 (0.49) % injected dose per gram | Biodistribution of radioactivity, Pancreas ([2]; 60 min after injection): 1.83 (0.07) % injected dose per gram | Biodistribution of radioactivity, Spleen ([2]; 60 min after injection): 7.58 (2.60) % injected dose per gram | Biodistribution of radioactivity, Stomach ([2]; 60 min after injection): 14.72 (4.51) % injected dose per organ | Distribution in brains of Tg2576 versus wild-type mice (in vivo SPECT/CT) (CAA in Tg2576 mice): not differentially distributed

CN(C)c1ccc(-c2nc3ccc(C4=N[O][99Tc-]5(=[O])([NH]4)[NH2+]C(c4ccc6nc(-c7ccc(N(C)C)cc7)sc6c4)=N[O]5)cc3s2)cc1 [[^99mTc]BT2B]
Biodistribution of radioactivity, Blood ([2]; 2 min after injection): 23.15 (4.78) % injected dose per gram | Biodistribution of radioactivity, Brain ([2]; 2 min after injection): 0.37 % injected dose per gram and 0.37 (0.11) % injected dose per gram | Biodistribution of radioactivity, Heart ([2]; 2 min after injection): 9.48 (4.83) % injected dose per gram | Biodistribution of radioactivity, Intestine ([2]; 2 min after injection): 1.32 (0.21) % injected dose per gram | Biodistribution of radioactivity, Kidney ([2]; 2 min after injection): 6.04 (0.96) % injected dose per gram | Biodistribution of radioactivity, Liver ([2]; 2 min after injection): 23.21 (5.72) % injected dose per gram | Biodistribution of radioactivity, Lung ([2]; 2 min after injection): 22.06 (3.09) % injected dose per gram | Biodistribution of radioactivity, Pancreas ([2]; 2 min after injection): 2.81 (0.35) % injected dose per gram | Biodistribution of radioactivity, Spleen ([2]; 2 min after injection): 10.83 (1.58) % injected dose per gram | Biodistribution of radioactivity, Stomach ([2]; 2 min after injection): 0.69 (0.12) % injected dose per organ | Biodistribution of radioactivity, Blood ([2]; 10 min after injection): 10.05 (1.78) % injected dose per gram | Biodistribution of radioactivity, Brain ([2]; 10 min after injection): 0.20 (0.04) % injected dose per gram | Biodistribution of radioactivity, Heart ([2]; 10 min after injection): 8.62 (2.34) % injected dose per gram | Biodistribution of radioactivity, Intestine ([2]; 10 min after injection): 1.97 (0.26) % injected dose per gram | Biodistribution of radioactivity, Kidney ([2]; 10 min after injection): 5.02 (0.40) % injected dose per gram | Biodistribution of radioactivity, Liver ([2]; 10 min after injection): 33.78 (6.07) % injected dose per gram | Biodistribution of radioactivity, Lung ([2]; 10 min after injection): 11.97 (1.01) % injected dose per gram | Biodistribution of radioactivity, Pancreas ([2]; 10 min after injection): 2.19 (0.35) % injected dose per gram | Biodistribution of radioactivity, Spleen ([2]; 10 min after injection): 14.49 (3.50) % injected dose per gram | Biodistribution of radioactivity, Stomach ([2]; 10 min after injection): 3.77 (0.56) % injected dose per organ | Biodistribution of radioactivity, Blood ([2]; 30 min after injection): 3.72 (0.49) % injected dose per gram | Biodistribution of radioactivity, Brain ([2]; 30 min after injection): 0.10 (0.02) % injected dose per gram | Biodistribution of radioactivity, Heart ([2]; 30 min after injection): 6.67 (1.52) % injected dose per gram | Biodistribution of radioactivity, Intestine ([2]; 30 min after injection): 6.44 (1.04) % injected dose per gram | Biodistribution of radioactivity, Kidney ([2]; 30 min after injection): 3.47 (0.57) % injected dose per gram | Biodistribution of radioactivity, Liver ([2]; 30 min after injection): 31.45 (3.39) % injected dose per gram | Biodistribution of radioactivity, Lung ([2]; 30 min after injection): 5.38 (1.16) % injected dose per gram | Biodistribution of radioactivity, Pancreas ([2]; 30 min after injection): 1.14 (0.25) % injected dose per gram | Biodistribution of radioactivity, Spleen ([2]; 30 min after injection): 10.91 (1.59) % injected dose per gram | Biodistribution of radioactivity, Stomach ([2]; 30 min after injection): 6.47 (1.37) % injected dose per organ | Biodistribution of radioactivity, Blood ([2]; 60 min after injection): 1.81 (0.44) % injected dose per gram | Biodistribution of radioactivity, Brain ([2]; 60 min after injection): 0.05 (0.01) % injected dose per gram | Biodistribution of radioactivity, Heart ([2]; 60 min after injection): 7.08 (1.34) % injected dose per gram | Biodistribution of radioactivity, Intestine ([2]; 60 min after injection): 13.90 (1.52) % injected dose per gram | Biodistribution of radioactivity, Kidney ([2]; 60 min after injection): 3.13 (0.48) % injected dose per gram | Biodistribution of radioactivity, Liver ([2]; 60 min after injection): 35.76 (3.34) % injected dose per gram | Biodistribution of radioactivity, Lung ([2]; 60 min after injection): 4.50 (0.60) % injected dose per gram | Biodistribution of radioactivity, Pancreas ([2]; 60 min after injection): 1.27 (0.28) % injected dose per gram | Biodistribution of radioactivity, Spleen ([2]; 60 min after injection): 4.80 (0.63) % injected dose per gram | Biodistribution of radioactivity, Stomach ([2]; 60 min after injection): 4.20 (1.21) % injected dose per organ
